The record followed here is patent publication US11912699B2, “Tau-protein targeting compounds and associated” (Arvinas Operations, Inc., priority 2019, dated 2024).

This assay deals with T1, Tau P301L (Homo sapiens, UniProt P10636, P618L).
T1 construct: expressed in transfected cells
As to the kind of experiment: In vitro tau degradation assay in CHOK1 Tau P301L cells (sarkosyl insoluble tau, WES). The format is cell-based. The following applies: remaining tau protein in sarkosyl insoluble pellet, CHOK1 Tau P301L cells treated 48 hours with test compound at 1 μM, doxycycline removed for the last 24 hours, relative to DMSO doxycycline control; for remaining activity at 1 µM: CHO-K1, read-out: Tau Protein Degradation effect at 1 μM. As for the experimental part:
Exemplary bifunctional molecules of the present disclosure are represented by the structures in Table 1, which includes associated data. In vitro tau protein degradation data in CHOK1 Tau P301L cells, as described below, is reported based on the remaining tau protein in the sarkosyl insoluble pellet following treatment of cells for 48 hours with test compound at the 1 μM concentration where the last 24 hours doxycycline was removed. The data are represented relative to DMSO doxycycline control: • A ≤50% of tau protein remaining (>50% of tau protein degraded) • B >50% of tau protein remaining ([…] of tau protein degraded)
Data for compounds in Table 1 was generated using in vitro tau Degradation Assay protocol as described in Methods for FIGS. 2A and 2B below.
FIGS. 2A and 2B. (2A) Tau expression was induced by addition (+) of doxycycline (1 μg/ml) to ChoK1-Tau P301L clone D1.
In vitro tau Degradation Assay for FIGS. 2A and 2B. T-Rex CHOK1 cells are maintained in Ham's F-12 Nutrient Mix (ThermoFisher) plus 10% Fetal Bovine Serum Tetracycline Negative (Corning) with 10 ug/mL Blasticidin S HCl (Gibco) and 200 ug/mL Zeocin (100 mg/mL, Invitrogen). A stable clone expressing Tau P301L in the presence of doxycycline (1 μg/ml), clone D1 was selected. Compounds were diluted to indicated concentrations and used to treat cells for the indicated times. Cells were harvested from either 96, 24, 6, or 10 cm dishes coated with Poly-D-Lysine (Corning) in ice cold PBS or Buffer H+HALT Protease and phosphatase inhibitors (Thermofisher). Sarkosyl Insoluble tau was isolated as described in Eckermann et al. and Greenberg and Davies, accordingly. WES™ capillary electrophoresis analysis was performed on the Sarkosyl Insoluble tau fraction using Tau1 antibody (Milipore) unless otherwise indicated, as specified in the manufacturers specification (ProteinSimple).

Molecules are shown by their SMILES.

T1 sequence (P10636 1-441 isoform P10636-8 P301L): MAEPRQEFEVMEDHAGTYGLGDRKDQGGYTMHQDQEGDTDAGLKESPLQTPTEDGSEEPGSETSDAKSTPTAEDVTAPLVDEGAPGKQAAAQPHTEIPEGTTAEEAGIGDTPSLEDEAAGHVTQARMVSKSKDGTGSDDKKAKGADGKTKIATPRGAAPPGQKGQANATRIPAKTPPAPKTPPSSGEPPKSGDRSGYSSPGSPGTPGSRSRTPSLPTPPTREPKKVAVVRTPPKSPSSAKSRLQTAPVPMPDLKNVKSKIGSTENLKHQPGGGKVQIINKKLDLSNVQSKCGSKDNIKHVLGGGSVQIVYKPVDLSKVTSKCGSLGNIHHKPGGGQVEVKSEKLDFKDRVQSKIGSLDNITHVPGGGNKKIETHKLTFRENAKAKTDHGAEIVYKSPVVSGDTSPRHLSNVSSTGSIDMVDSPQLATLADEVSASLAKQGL

Consider `O=C1CCC(N2C(=O)c3ccc(OCCOCCOCCOCCOc4ccc5cc(-n6ccc7ccncc76)ncc5c4)cc3C2=O)C(=O)N1` (centres unmarked) [Compound 384, 5-(2-(2-(2-(2-((3-(1H-pyrrolo[2,3-c]pyridin-1-yl)isoquinolin-7-yl)oxy)ethoxy)ethoxy)ethoxy)ethoxy)-2-(2,6-dioxopiperidin-3-yl)isoindoline-1,3-dione], for which the remaining activity at 1 µM is > 50%. Still for that read-out and setting: under `Cn1c2ccncc2c2ccc(-c3ccc(O[C@H]4C[C@H](OC5CCN(CCCOc6ccc7c(c6)C(=O)N(C6CCC(=O)NC6=O)C7=O)CC5)C4)nc3)cc21` (some centres unmarked) [Compound 385, 2-(2,6-dioxopiperidin-3-yl)-5-(3-(4-((1r,3r)-3-((5-(5-methyl-5H-pyrido[4,3-b]indol-7-yl)pyridin-2-yl)oxy)cyclobutoxy)piperidin-1-yl)propoxy)isoindoline-1,3-dione] stands > 50%.

For the compound `Cn1c2ccncc2c2ccc(-c3ccc(O[C@H]4C[C@H](CN5CC6(CN(CCOc7ccc8c(c7)C(=O)N(C7CCC(=O)NC7=O)C8=O)C6)C5)C4)nc3)cc21` (some centres unmarked) [Compound 386, 2-(2,6-dioxo-3-piperidyl)-5-[2-[2-[[3-[[5-(5-methylpyrido[4,3-b]indol-7-yl)-2-pyridyl]oxy]cyclobutyl]methyl]-2,6-diazaspiro[3.3]heptan-6-yl]ethoxy]isoindoline-1,3-dione diformate], the remaining activity at 1 µM is < 50%. Turning to `Cn1c2ccncc2c2ccc(-c3ccc(O[C@H]4C[C@H](CN5CCN(CCCCCOc6ccc7c(c6)C(=O)N(C6CCC(=O)NC6=O)C7=O)CC5)C4)nc3)cc21` (some centres unmarked) [Compound 387, 2-(2,6-dioxopiperidin-3-yl)-5-((5-(4-(((1r,3r)-3-((5-(5-methyl-5H-pyrido[4,3-b]indol-7-yl)pyridin-2-yl)oxy)cyclobutyl)methyl)piperazin-1-yl)pentyl)oxy) isoindoline-1,3-dione], the remaining activity at 1 µM was < 50%. Consider `Cn1c2ccncc2c2ccc(-c3ccc(O[C@H]4C[C@H](OC5CCN(CCCN6CC(Oc7ccc8c(c7)C(=O)N(C7CCC(=O)NC7=O)C8=O)C6)CC5)C4)nc3)cc21` (some centres unmarked) [Compound 388, 2-(2,6-dioxopiperidin-3-yl)-5-((1-(3-(4-((1r,3r)-3-((5-(5-methyl-5H-pyrido[4,3-b]indol-7-yl)pyridin-2-yl)oxy)cyclobutoxy)piperidin-1-yl)propyl)azetidin-3-yl)oxy) isoindoline-1,3-dione], for which the remaining activity at 1 µM was < 50%. `Cc1ncsc1-c1ccc([C@H](C)NC(=O)[C@@H]2C[C@@H](O)CN2C(=O)[C@@H](NC(=O)CN2CCN(CCN3CCC(O[C@H]4C[C@H](Oc5ccc(-c6ccc7c8cnccc8n(C)c7c6)cn5)C4)CC3)CC2)C(C)(C)C)cc1` [Compound 389, (2S,4R)-1-((S)-3,3-dimethyl-2-(2-(4-(2-(4-((1r,3r)-3-((5-(5-methyl-5H-pyrido[4,3-b]indol-7-yl)pyridin-2-yl)oxy)cyclobutoxy)piperidin-1-yl)ethyl)piperazin-1-yl)acetamido)butanoyl)-4-hydroxy-N-((S)-1-(4-(4-methylthiazol-5-yl)phenyl)ethyl) pyrrolidine-2-carboxamide]: the remaining activity at 1 µM was < 50%.

Consider `Cn1c2ccncc2c2ccc(-c3ccc(N4CCC(CN5CCN(c6ccc7c(c6)C(=O)N(C6CCC(=O)NC6=O)C7=O)CC5)CC4)nc3)cc21` (centres unmarked) [Compound 390, 2-(2,6-dioxopiperidin-3-yl)-5-(4-[[1-(5-[5-methyl-5H-pyrido[4,3-b]indol-7-yl]pyridin-2-yl)piperidin-4-yl]methyl]piperazin-1-yl)-2,3-dihydro-1H-isoindole-1,3-dione], for which the remaining activity at 1 µM is > 50%. The same measure, in the same setting: the value for `Cc1ncsc1-c1ccc([C@H](C)NC(=O)[C@@H]2C[C@@H](O)CN2C(=O)[C@@H](c2cc(N3CCN(CCO[C@H]4C[C@H](Oc5ccc(-c6ccc7c8cnccc8n(C)c7c6)cn5)C4)CC3)no2)C(C)C)cc1` [Compound 391, (2S,4R)-4-hydroxy-1-((R)-3-methyl-2-(3-(4-(2-((1r,3R)-3-((5-(5-methyl-5H-pyrido[4,3-b]indol-7-yl)pyridin-2-yl)oxy)cyclobutoxy)ethyl)piperazin-1-yl)isoxazol-5-yl)butanoyl)-N-((S)-1-(4-(4-methylthiazol-5-yl)phenyl)ethyl) pyrrolidine-2-carboxamide] was < 50%; that for `Cn1c2ccncc2c2ccc(-c3ccc(O[C@H]4C[C@H](N(C)C5CC6(C5)CN(CCOc5ccc7c(c5)C(=O)N(C5CCC(=O)NC5=O)C7=O)C6)C4)nc3)cc21` (some centres unmarked) [Compound 392, 2-(2,6-dioxopiperidin-3-yl)-5-(2-(6-(methyl((1r,3r)-3-((5-(5-methyl-5H-pyrido[4,3-b]indol-7-yl)pyridin-2-yl)oxy)cyclobutyl)amino)-2-azaspiro[3.3]heptan-2-yl)ethoxy) isindoline-1,3-dione] was > 50%; that for `Cn1c2ccncc2c2ccc(-c3ccc(O[C@H]4C[C@H](CN5CCC(CCCCCOc6ccc7c(c6)C(=O)N(C6CCC(=O)NC6=O)C7=O)CC5)C4)nc3)cc21` (some centres unmarked) [Compound 393, 2-(2,6-dioxopiperidin-3-yl)-5-((5-(1-(((1r,3r)-3-((5-(5-methyl-5H-pyrido[4,3-b]indol-7-yl)pyridin-2-yl)oxy)cyclobutyl)methyl)piperidin-4-yl)pentyl)oxy) isoindoline-1,3-dione] was < 50%. As to `Cn1c2ccncc2c2ccc(-c3ccc(O[C@H]4C[C@H](CN5CCC(CCCN6CC(Oc7ccc8c(c7)C(=O)N(C7CCC(=O)NC7=O)C8=O)C6)CC5)C4)nc3)cc21` (some centres unmarked) [Compound 394, 2-(2,6-dioxopiperidin-3-yl)-5-((1-(3-(1-(((1r,3r)-3-((5-(5-methyl-5H-pyrido[4,3-b]indol-7-yl)pyridin-2-yl)oxy)cyclobutyl)methyl)piperidin-4-yl)propyl)azetidin-3-yl)oxy)isoindoline-1,3-dione], the remaining activity at 1 µM is > 50%. As to `Cc1ncsc1-c1ccc([C@H](C)NC(=O)[C@@H]2C[C@@H](O)CN2C(=O)[C@@H](c2cc(OCCOCCOCCOc3ccc(-c4ccc5c(c4)[nH]c4ccncc45)cn3)no2)C(C)C)cc1` [Compound 396], the “Tau Protein Degradation effect at 1 μM” value is “A (≤50% of tau protein remaining (>50% of tau protein degraded))”. Turning to `Cn1c2ccncc2c2ccc(-c3ccc(N4CCC(CCN5CCN(c6ccc7c(c6)C(=O)N(C6CCC(=O)NC6=O)C7=O)CC5)CC4)nc3)cc21` (centres unmarked) [Compound 397, 2-(2,6-dioxopiperidin-3-yl)-5-(4-(2-(1-(5-(5-methyl-5H-pyrido[4,3-b]indol-7-yl)pyridin-2-yl)piperidin-4-yl)ethyl)piperazin-1-yl)isindoline-1,3-dione], the remaining activity at 1 µM was < 50%. Regarding `Cc1ncsc1-c1ccc([C@H](C)NC(=O)[C@@H]2C[C@@H](O)CN2C(=O)[C@@H](c2cc(OCCN3CCC(O[C@H]4C[C@H](Oc5ccc(-c6ccc7c8cnccc8n(C)c7c6)cn5)C4)CC3)no2)C(C)C)cc1` [Compound 398, (2S,4R)-4-hydroxy-1-((R)-3-methyl-2-(3-(2-(4-((1r,3R)-3-((5-(5-methyl-5H-pyrido[4,3-b]indol-7-yl)pyridin-2-yl)oxy)cyclobutoxy)piperidin-1-yl)ethoxy)isoxazol-5-yl)butanoyl)-N-((S)-1-(4-(4-methylthiazol-5-yl)phenyl)ethyl) pyrrolidine-2-carboxamide], the remaining activity at 1 µM was < 50%.

Turning to `Cc1ncsc1-c1ccc([C@H](C)NC(=O)[C@@H]2C[C@@H](O)CN2C(=O)[C@H](c2cc(OCCN3CCC(O[C@H]4C[C@H](Oc5ccc(-c6ccc7c8cnccc8n(C)c7c6)cn5)C4)CC3)no2)C(C)C)cc1` [Compound 399, (2S,4R)-4-hydroxy-1-((S)-3-methyl-2-(3-(2-(4-((1r,3S)-3-((5-(5-methyl-5H-pyrido[4,3-b]indol-7-yl)pyridin-2-yl)oxy)cyclobutoxy)piperidin-1-yl)ethoxy)isoxazol-5-yl)butanoyl)-N-((S)-1-(4-(4-methylthiazol-5-yl)phenyl)ethyl) pyrrolidine-2-carboxamide], the remaining activity at 1 µM is > 50%. On to `O=C1CCC(N2C(=O)c3ccc(N4CCN(CCC5CCN(c6ccc(-c7ccc8c(c7)[nH]c7ccncc78)cn6)CC5)CC4)cc3C2=O)C(=O)N1` (centres unmarked) [Compound 400, 2-(2,6-dioxopiperidin-3-yl)-5-(4-[2-[1-(5-[5H-pyrido[4,3-b]indol-7-yl]pyridin-2-yl)piperidin-4-yl]ethyl]piperazin-1-yl)isoindole-1,3-dione], for which the remaining activity at 1 µM is < 50%. The same measure, in the same setting: under `Cn1c2ccncc2c2ccc(-c3ccc(O[C@H]4C[C@H](N(C)C5CC6(C5)CN(CCC5CCN(c7ccc8c(c7)C(=O)N(C7CCC(=O)NC7=O)C8=O)CC5)C6)C4)nc3)cc21` (some centres unmarked) [Compound 401, 2-(2,6-dioxopiperidin-3-yl)-5-(4-(2-(6-(methyl((1r,3r)-3-((5-(5-methyl-5H-pyrido[4,3-b]indol-7-yl)pyridin-2-yl)oxy)cyclobutyl)amino)-2-azaspiro[3.3]heptan-2-yl)ethyl)piperidin-1-yl) isoindoline-1,3-dione] stands < 50%.
